pIC50: −log10 of the molar value. Several values for one entry are separate records, joined by “and”; a condition that tells them apart may be missing. Equal values may be shown once.
System: 556581-035-R-J1-PDC complex spheroid growth
Test: Anticancer human tumor 556581-035-R-J1-PDC patient-derived ovarian carcinoma cell line growth inhibition [AhR]
Conditions: for viability, T/C: stronger effect = lower value; active means viability on the fitted dose curve at most 10% of control; inactive means the rest
Summary of the method: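 Complex tumor spheroids co-cultured with HUVEC and human MSC stroma; AhR antagonists tested in combination with standard-of-care and investigational agents. Top concentration at or near clinical Cmax (else 10 microM), half-log dilutions; growth expressed as percent test/control.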

[1] = curve of first compound, second compound 0.1 µM
[2] = curve of first compound, second compound 0.316 µM
[3] = curve of first compound, second compound 1 µM
[4] = curve of first compound, second compound 3.16 µM
[5] = curve of first compound, second compound 10 µM
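Wherever viability, T/C is given: compound exposure lasted 7 days; 100% = DMSO vehicle control growth.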

O=C(C=Cn1cnc(-c2cc(C(F)(F)F)cc(C(F)(F)F)c2)n1)NNc1cnccn1 + Cc1cncc(-c2nc(NCCc3c[nH]c4ccccc34)c3ncn(C(C)C)c3n2)c1
< 5.52: pIC50 [1] | pIC50 [2] | pIC50 [4] | pIC50 [5]
5.73: pIC50 [3]
inactive: viability, T/C (second compound 0.1 µM, first compound 0.00949 µM) 94.2% | viability, T/C (second compound 0.1 µM, first compound 0.03 µM) 99.9% | viability, T/C (second compound 0.1 µM, first compound 0.0949 µM) 95.5% | viability, T/C (second compound 0.1 µM, first compound 0.3 µM) 85.9% | viability, T/C (second compound 0.1 µM, first compound 0.949 µM) 70.8% | viability, T/C (second compound 0.1 µM, first compound 3 µM) 56.3% | viability, T/C (second compound 0.316 µM, first compound 0.00949 µM) 85.5% | viability, T/C (second compound 0.316 µM, first compound 0.03 µM) 96.2% | viability, T/C (second compound 0.316 µM, first compound 0.0949 µM) 74.8% | viability, T/C (second compound 0.316 µM, first compound 0.3 µM) 73.8% | viability, T/C (second compound 0.316 µM, first compound 0.949 µM) 62.6% | viability, T/C (second compound 0.316 µM, first compound 3 µM) 50.1% | viability, T/C (second compound 1 µM, first compound 0.00949 µM) 93.9% | viability, T/C (second compound 1 µM, first compound 0.03 µM) 94.8% | viability, T/C (second compound 1 µM, first compound 0.0949 µM) 87.5% | viability, T/C (second compound 1 µM, first compound 0.3 µM) 78.2% | viability, T/C (second compound 1 µM, first compound 0.949 µM) 65.4% | viability, T/C (second compound 1 µM, first compound 3 µM) 39.4% | viability, T/C (second compound 3.16 µM, first compound 0.00949 µM) 92.8% | viability, T/C (second compound 3.16 µM, first compound 0.03 µM) 97.1% | viability, T/C (second compound 3.16 µM, first compound 0.0949 µM) 95.9% | viability, T/C (second compound 3.16 µM, first compound 0.3 µM) 74.8% | viability, T/C (second compound 3.16 µM, first compound 0.949 µM) 57.3% | viability, T/C (second compound 3.16 µM, first compound 3 µM) 50.4% | viability, T/C (second compound 10 µM, first compound 0.00949 µM) 81.6% | viability, T/C (second compound 10 µM, first compound 0.03 µM) 84.6% | viability, T/C (second compound 10 µM, first compound 0.0949 µM) 73.9% | viability, T/C (second compound 10 µM, first compound 0.3 µM) 72.7% | viability, T/C (second compound 10 µM, first compound 0.949 µM) 64.8% | viability, T/C (second compound 10 µM, first compound 3 µM) 68.9%

Nc1ccccc1NC(=O)c1ccc(CNC(=O)OCc2cccnc2)cc1
inactive: viability, T/C (compound 0.0316 µM) 107% and 100% and 98.1% | viability, T/C (compound 0.1 µM) 90.8% and 105% and 99% | viability, T/C (compound 0.316 µM) 90.4% and 74.8% and 71.6% | viability, T/C (compound 1 µM) 63.6% and 66.1% and 48.9% | viability, T/C (compound 3.16 µM) 37.2% and 42.8% and 26.6% | viability, T/C (compound 10 µM) 19.1% and 17% and 18.4%
5.73 and 5.68 and 6.05: pIC50 (curve of compound)

O=C(C=Cc1cccc(S(=O)(=O)Nc2ccccc2)c1)NO + Cc1ccccc1N=Nc1ccc(NC(=O)c2ccnn2C)c(C)c1
5.87: pIC50 [2]
active: viability, T/C (second compound 0.1 µM, first compound 10 µM) 4.1% | viability, T/C (second compound 0.316 µM, first compound 10 µM) 4.53% | viability, T/C (second compound 1 µM, first compound 10 µM) 6.45% | viability, T/C (second compound 3.16 µM, first compound 10 µM) 5.72% | viability, T/C (second compound 10 µM, first compound 10 µM) 7.96%
inactive: viability, T/C (second compound 0.1 µM, first compound 0.0316 µM) 99.8% | viability, T/C (second compound 0.1 µM, first compound 0.1 µM) 113% | viability, T/C (second compound 0.1 µM, first compound 0.316 µM) 87% | viability, T/C (second compound 0.1 µM, first compound 1 µM) 50.8% | viability, T/C (second compound 0.1 µM, first compound 3.16 µM) 28.4% | viability, T/C (second compound 0.316 µM, first compound 0.0316 µM) 106% | viability, T/C (second compound 0.316 µM, first compound 0.1 µM) 92.7% | viability, T/C (second compound 0.316 µM, first compound 0.316 µM) 91.9% | viability, T/C (second compound 0.316 µM, first compound 1 µM) 57.1% | viability, T/C (second compound 0.316 µM, first compound 3.16 µM) 24.9% | viability, T/C (second compound 1 µM, first compound 0.0316 µM) 93.9% | viability, T/C (second compound 1 µM, first compound 0.1 µM) 107% | viability, T/C (second compound 1 µM, first compound 0.316 µM) 91.7% | viability, T/C (second compound 1 µM, first compound 1 µM) 53.2% | viability, T/C (second compound 1 µM, first compound 3.16 µM) 27.7% | viability, T/C (second compound 3.16 µM, first compound 0.0316 µM) 96.4% | viability, T/C (second compound 3.16 µM, first compound 0.1 µM) 90.5% | viability, T/C (second compound 3.16 µM, first compound 0.316 µM) 77.7% | viability, T/C (second compound 3.16 µM, first compound 1 µM) 51.4% | viability, T/C (second compound 3.16 µM, first compound 3.16 µM) 27.1% | viability, T/C (second compound 10 µM, first compound 0.0316 µM) 86.2% | viability, T/C (second compound 10 µM, first compound 0.1 µM) 83.2% | viability, T/C (second compound 10 µM, first compound 0.316 µM) 79.8% | viability, T/C (second compound 10 µM, first compound 1 µM) 61% | viability, T/C (second compound 10 µM, first compound 3.16 µM) 30.9%
5.95: pIC50 [4]
5.92: pIC50 [1]
5.81: pIC50 [5]
5.89: pIC50 [3]
